Molecular target: T1, human recombinant P2X7 receptors (Homo sapiens, UniProt Q99572)
T1 construct: expressed in transfected cells; host or cells: HEK293
T1 sequence (Q99572 1-595): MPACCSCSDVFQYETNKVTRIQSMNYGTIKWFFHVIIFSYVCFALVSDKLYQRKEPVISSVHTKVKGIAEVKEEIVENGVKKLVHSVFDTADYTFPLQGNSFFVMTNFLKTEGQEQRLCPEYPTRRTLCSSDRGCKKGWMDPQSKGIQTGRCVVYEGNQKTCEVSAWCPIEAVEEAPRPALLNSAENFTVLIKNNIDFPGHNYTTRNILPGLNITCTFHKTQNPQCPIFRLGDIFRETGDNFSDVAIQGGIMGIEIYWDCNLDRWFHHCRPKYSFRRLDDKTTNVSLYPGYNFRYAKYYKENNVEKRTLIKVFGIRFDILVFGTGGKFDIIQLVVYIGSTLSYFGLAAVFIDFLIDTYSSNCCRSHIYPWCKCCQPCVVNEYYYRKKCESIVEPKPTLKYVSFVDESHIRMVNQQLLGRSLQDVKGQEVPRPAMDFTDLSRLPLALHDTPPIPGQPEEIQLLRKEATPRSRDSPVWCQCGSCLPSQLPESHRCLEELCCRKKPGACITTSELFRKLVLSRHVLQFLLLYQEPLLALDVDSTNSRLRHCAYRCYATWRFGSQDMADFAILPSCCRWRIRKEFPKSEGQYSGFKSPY
Experiment: Ethidium Accumulation Assay
Assay type: cell-based
Details: HEK293 cells expressing human recombinant P2X7; 1 mM ATP, 100 μM ethidium; 30 min preincubation at room temperature; read-out: Antagonist pIC50 for blocking ATP responses (cellular accumulation of ethidium) (converted)
Description: Studies were performed using NaCl assay buffer of the following composition (in mM): 140 mM NaCl, HEPES 10, N-methyl-D-glucamine 5, KCl 5.6, D-glucose 10, CaCl2 0.5 (pH 7.4). HEK293 cells, expressing human recombinant P2X7 receptors, were grown in poly-L-lysine pretreated 96 well plates for 18-24 h. (The cloning of the human P2X7 receptor is described in U.S. Pat. No. 6,133,434). The cells were washed twice with 350 μl of assay buffer before addition of 50 μl of antagonist. The cells were then incubated at room temperature (19-21° C.) for 30 min before addition of ATP and ethidium (100 μM final assay concentration). The ATP concentration was chosen to be close to the EC80 for the receptor type and was 1 mM for studies on the human P2X7 receptor. Incubations were continued for 8 or 16 min and were terminated by addition of 25 μl of 1.3M sucrose containing 5 mM of the P2X7 receptor antagonist reactive black 5 (Aldrich). Cellular accumulation of ethidium was determined by measuring fluorescence (excitation wavelength of 530 nm and emission wavelength of 620 nm) from below the plate with a Canberra Packard Fluorocount (Pangbourne, UK). Antagonist pIC50 values for blocking ATP responses were determined using iterative curve fitting techniques.

Compound: CCN1C(=O)c2ccccc2C1C(=O)NCc1cccc(C(F)(F)F)c1Cl (stereo not drawn) [Example 4, N-{[2-chloro-3-(trifluoromethyl)phenyl]methyl}-2-ethyl-3-oxo-2,3-dihydro-1H-isoindole-1-carboxamide]
- IC50: ≤ 126 nM

Compound: CCN1C(=O)c2ccccc2C1C(=O)NCc1ccc(Cl)cc1Cl (stereo not drawn) [Example 2, N-[(2,4-dichlorophenyl)methyl]-2-ethyl-3-oxo-2,3-dihydro-1H-isoindole-1-carboxamide]
- IC50: ≤ 631 nM

Compound: CN1C(=O)c2ccccc2C1C(=O)NCc1ccc(F)cc1Cl (stereo not drawn) [Example 6, N-[(2-chloro-4-fluorophenyl)methyl]-2-methyl-3-oxo-2,3-dihydro-1H-isoindole-1-carboxamide]
- IC50: ≤ 631 nM

Compound: CC1=CC(=O)N(C2CC2)C1C(=O)NCc1ccc(Cl)cc1Cl (stereo not drawn) [Example 1, 1-cyclopropyl-N-[(2,4-dichlorophenyl)methyl]-3-methyl-5-oxo-2,5-dihydro-1H-pyrrole-2-carboxamide]
- IC50: ≤ 631 nM

Compound: CN1C(=O)c2ccccc2C1C(=O)NCc1cccc(C(F)(F)F)c1Cl (stereo not drawn) [Example 7, N-{[2-chloro-3-(trifluoromethyl)phenyl]methyl}-2-methyl-3-oxo-2,3-dihydro-1H-isoindole-1-carboxamide]
- IC50: ≤ 126 nM

Compound: CN1C(=O)c2ccccc2C1C(=O)NCc1ccc(Cl)cc1Cl (stereo not drawn) [Example 5, N-[(2,4-dichlorophenyl)methyl]-2-methyl-3-oxo-2,3-dihydro-1H-isoindole-1-carboxamide]
- IC50: ≤ 126 nM

Reference: patent publication US7935832B2, “Pyrrole and isoindole carboxamide derivatives as P2X7 modulators” (Glaxo Group Limited, priority 2007, dated 2011)
